# Results as given in article PMC11952367 (bioRxiv, 2025).
# Legend:
# ΔC-TWIK-2 = target: T1, ΔC-TWIK-2 (Homo sapiens, UniProt Q9Y257); assay: automated whole-cell patch clamp; assay type: cell-based
# T1 sequence (Q9Y257 1-276): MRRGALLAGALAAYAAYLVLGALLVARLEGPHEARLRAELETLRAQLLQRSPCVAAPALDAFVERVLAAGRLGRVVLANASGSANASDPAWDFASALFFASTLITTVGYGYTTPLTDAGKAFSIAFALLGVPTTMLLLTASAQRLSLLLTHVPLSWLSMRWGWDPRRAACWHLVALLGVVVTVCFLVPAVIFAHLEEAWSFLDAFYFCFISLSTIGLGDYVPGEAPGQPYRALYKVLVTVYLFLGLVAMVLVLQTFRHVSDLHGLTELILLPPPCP
# TWIK-2 = target: T2, TWIK-2 (Homo sapiens, UniProt Q9Y257); assay: automated whole-cell patch clamp, HEK293 GnTI- cells; assay type: cell-based; conditions: inhibition; voltage step to +60 mV from holding -90 mV
# T2 sequence (Q9Y257 1-313): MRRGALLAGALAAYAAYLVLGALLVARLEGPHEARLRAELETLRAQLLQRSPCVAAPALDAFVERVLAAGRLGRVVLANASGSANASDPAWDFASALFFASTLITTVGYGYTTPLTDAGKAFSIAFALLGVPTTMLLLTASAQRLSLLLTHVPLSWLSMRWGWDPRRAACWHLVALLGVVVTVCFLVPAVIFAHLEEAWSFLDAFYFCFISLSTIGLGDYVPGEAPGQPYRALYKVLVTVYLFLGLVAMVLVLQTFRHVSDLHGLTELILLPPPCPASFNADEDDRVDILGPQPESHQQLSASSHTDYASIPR
smiles,measurement,setting,value
COc1ccccc1C(=O)Nc1cccc(NC(=O)c2cccc(C)c2)c1 [ML365],percentage inhibition at maximum drug concentration,ΔC-TWIK-2,"in ΔC-TWIK-2, we see a significant reduction in percentage inhibition at maximum drug concentration"
same,IC50,TWIK-2,1500 nM
